# Values of other authors as cited in article PMC7383075 (Journal of Nuclear Medicine, 2020).
# What was measured:
# insulinomas = conditions: at the proper dilution; ref [23]
# From the text: A targeted approach, as described in this study, has the benefit of creating signals with higher contrast between the target and surrounding tissue and therefore more precise delineation of the lesion. […] Re ...
# [1] = tested on: primary breast cancer lesions, as well as peritoneal metastases of colorectal cancer; conditions: primary breast cancer lesions and peritoneal metastases of colorectal cancer; ref [29],[30]
# From the text: Contributing to the potential for clinical translation of this tracer is the use of the NIR fluorophore IRDye 800CW. This dye is widely used in the development of targeted fluorescence imaging approaches, and several studies already have shown the first successful clinical applications using this fluorophore. […] Also, IRDye 800CW coupled to the monoclonal antibody cetuximab was successfully used fo ...
Compound,uptake in insulinomas versus normal pancreatic tissue (insulinomas),detection of cancer lesions [1]
CN(C)c1ccc2nc3ccc(=[N+](C)C)cc-3sc2c1 [methylene blue],higher uptake in insulinomas than in normal pancreatic tissue,–
IRDye 800CW coupled to the monoclonal antibody bevacizumab: IRDye 800CW coupled to the monoclonal antibody bevacizumab,–,shown to be feasible
